Source: patent US20250154144A1 (CHILDREN'S HOSPITAL MEDICAL CENTER, priority 2021, published 2025)
Residue numbers refer to the chain shown, from its start. Read-outs that look alike come from different tables or passages of the source.

How the values were obtained:
[1] = tested on: MOLM14(D835Y) cells; format: cell-based; conditions: MOLM14(D835Y) cells; for Excess HSA Score: 10 × 10
[2] = target: T1, FLT3 ITD, F691L (Homo sapiens, UniProt P36888, F691L, form not given); assay: DiscoverX KINOMEscan competition binding, FLT3 ITD, F691L; conditions: read-out: FLT3 ITD, F691L Kd
T1 sequence (P36888 1-993 F691L): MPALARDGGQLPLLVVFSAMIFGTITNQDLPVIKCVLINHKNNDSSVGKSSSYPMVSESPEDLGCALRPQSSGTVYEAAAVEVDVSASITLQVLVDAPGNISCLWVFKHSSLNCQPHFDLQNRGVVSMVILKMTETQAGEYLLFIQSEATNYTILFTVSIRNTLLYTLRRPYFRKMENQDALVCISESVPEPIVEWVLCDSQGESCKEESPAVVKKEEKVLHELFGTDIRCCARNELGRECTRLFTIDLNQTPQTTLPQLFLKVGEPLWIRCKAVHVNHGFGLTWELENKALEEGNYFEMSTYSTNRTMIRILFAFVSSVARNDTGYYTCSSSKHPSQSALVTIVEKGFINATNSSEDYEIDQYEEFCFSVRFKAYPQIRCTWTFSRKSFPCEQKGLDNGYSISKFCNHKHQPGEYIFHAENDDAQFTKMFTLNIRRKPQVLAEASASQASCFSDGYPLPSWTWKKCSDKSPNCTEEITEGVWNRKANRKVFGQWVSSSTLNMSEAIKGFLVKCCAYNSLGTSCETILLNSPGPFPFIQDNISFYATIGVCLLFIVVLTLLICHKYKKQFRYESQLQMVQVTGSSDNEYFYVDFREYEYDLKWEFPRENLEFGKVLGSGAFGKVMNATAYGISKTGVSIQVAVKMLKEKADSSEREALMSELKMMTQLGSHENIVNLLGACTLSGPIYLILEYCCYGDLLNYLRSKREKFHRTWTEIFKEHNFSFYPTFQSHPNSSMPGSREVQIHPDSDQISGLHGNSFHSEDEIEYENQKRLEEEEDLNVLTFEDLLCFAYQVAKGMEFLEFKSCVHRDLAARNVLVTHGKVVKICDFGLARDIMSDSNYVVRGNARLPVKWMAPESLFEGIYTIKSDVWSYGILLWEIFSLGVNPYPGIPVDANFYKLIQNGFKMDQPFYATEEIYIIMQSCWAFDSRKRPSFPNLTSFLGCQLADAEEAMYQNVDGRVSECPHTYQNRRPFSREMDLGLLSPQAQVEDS

[3] = target: T2, FLT3 ITD, D835V (Homo sapiens, UniProt P36888, D835V, form not given); assay: DiscoverX KINOMEscan competition binding, FLT3 ITD, D835V; conditions: read-out: FLT3 ITD, D835V Kd
T2 sequence (P36888 1-993 D835V): T1 sequence (P36888 1-993 F691L) with L691F, D835V

[4] = tested on: THP1 cells; assay: Combination drug screening, Cell Titer Glo, 10 × 10 matrix, THP1 cells; format: cell-based; conditions: single compound range 0-10,000 nM or 0-20,000 nM
[5] = combination with Venetoclax (ABT-199)

COc1cc2ncc(-c3ccnc(N[C@@H]4CCCNC4)n3)n2cc1C(C)(C)O [Compound 44, (R)-2-(7-methoxy-3-(2-(piperidin-3-ylamino)pyrimidin-4-yl)imidazo[1,2-a]pyridin-6-yl)propan-2-ol]
Excess HSA Score ([1]; combination with (+)-BAY-1251152): −808.4
Excess HSA Score ([1]; combination with AMG-232): −620.9
Excess HSA Score ([1]; combination with AZD-5363): −290.5
Excess HSA Score ([1]; combination with Eprenetapopt/APR-246): 75.21
Excess HSA Score ([1]; combination with Ivosidenib): 21.01
Excess HSA Score ([1]; combination with Lenalidomide): 270.3924
Excess HSA Score ([1]; combination with Palbociclib): −370.2
Excess HSA Score ([1]; combination with Prednisolone): 409.4
Excess HSA Score ([1]; combination with SNDX-5613): 3.1084
Excess HSA Score ([1]; combination with TNO-155): −655.3
Excess HSA Score ([1]; combination with Trametinib): −420
Excess HSA Score ([1]; combination with Ulixertinib): −254.1
Excess HSA Score [1, 5]: −1120.4885
Comments ([1]; combination with SNDX-5613): Antagonistic
Comments [1, 5]: Synergistic
Kd [2]: 0.092 nM
Kd [3]: 0.009 nM
Comments ([4]; with (+)-BAY-1251152): Synergistic
Excess HSA Score ([4]; with (+)-BAY-1251152): −516.5
Comments ([4]; with AMG-232): Antagonistic
Excess HSA Score ([4]; with AMG-232): 733.5
Comments ([4]; with AZD-5363): Antagonistic
Excess HSA Score ([4]; with AZD-5363): 35.78
Comments ([4]; with Eprenetapopt/APR-246): Antagonistic
Excess HSA Score ([4]; with Eprenetapopt/APR-246): 460.1
Comments ([4]; with Ivosidenib): Synergistic
Excess HSA Score ([4]; with Ivosidenib): −47.26
Comments ([4]; with Lenalidomide): Antagonistic
Excess HSA Score ([4]; with Lenalidomide): 877.5
Comments ([4]; with Palbociclib): Synergistic
Excess HSA Score ([4]; with Palbociclib): −764
Comments ([4]; with Prednisolone): Antagonistic
Excess HSA Score ([4]; with Prednisolone): 68.4575
Comments ([4]; with SNDX-5613): Antagonistic
Excess HSA Score ([4]; with SNDX-5613): 337.7
Comments ([4]; with TNO-155): Synergistic
Excess HSA Score ([4]; with TNO-155): −62.85
Comments ([4]; with Trametinib): Synergistic
Excess HSA Score ([4]; with Trametinib): −453.2
Comments ([4]; with Ulixertinib): Synergistic
Excess HSA Score ([4]; with Ulixertinib): −572.2
Comments ([4]; with Venetoclax (ABT-199)): Synergistic
Excess HSA Score ([4]; with Venetoclax (ABT-199)): −1159
